Molecules are shown by their SMILES.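 Compound exposure: 48 hours, 5 concentrations, 96-well plates. At the GI50, growth is halved. TGI: concentration producing complete growth inhibition.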

The first experiment concerns HT29 colon. Kind of experiment: growth of human tumour cells (NCI), 48 h.
The compound `CCCCCCCCCCCCCCC1OC(=O)c2ccccc21` (stereo not drawn) gave a TGI of over 100 µM.
For the compound `CN(C)CCNC(=O)c1cccc2nc3c(Cl)cccc3nc12`, the TGI is 15.9 µM.
As for `Cn1cc(C2=C(c3ccc(OC[C@@H](O)CO)cc3)C(=O)NC2=O)c2ccccc21`, the GI50 is over 25 µM and the TGI is over 25 µM.
With `O=C1c2ccccc2-c2c1c1cc3c(cc1c(=O)n2CCCCl)OCO3`, the GI50 was over 100 µM and the TGI was over 100 µM.
As for `CC(C)(C)C1=NC(S)NC(CCC(=O)Nc2ccccc2[N+](=O)[O-])=C1` (stereo not drawn), the TGI is over 100 µM.

The subject of the next experiment is SNB-75 CNS. Kind of experiment: growth of human tumour cells (NCI), 48 h.
Consider `C1CN2N3CCCC23C1` (stereo not drawn), for which the TGI was over 100 µM.
Compound `Cc1cccc(C(C)(C)C)c1NC(=O)C(=O)Cc1nc2ccccc2s1` gave a TGI of over 100 µM.
Take `CC(=O)OCCc1cccnc1/C=N/O`: the TGI is over 100 µM.
On to `CN(C)c1ccc(/C=C2\C[N+](C)(C)C/C(=C\c3ccc(N(C)C)cc3)C2=O)cc1`, for which the TGI amounted to 67.3 µM.
Compound `O=C1CC[C@H]2CNC(=O)C[C@H]2C1` showed a TGI of over 100 µM.
On to `C#CC(C)(C)Oc1cc(O)c2c(=O)c3ccccc3n(C)c2c1`, for which the TGI was over 100 µM.
With `CN1CCCNCCN(CCc2ccccn2)CCCN(C)CC1`, the TGI is over 100 µM.
Consider `C[C@]12CCC(=O)C=C1CC[C@@H]1C2CC[C@]2(C)NC(=O)C(C#N)CC12` (stereo partly drawn), for which the TGI is over 100 µM.
Take `COC(=O)c1c(OC)cccc1C(=O)O`: the TGI was over 100 µM.
`Cc1c(C(=O)/C=C/c2cccc3ccccc23)[n+](=O)c2ccccc2n1[O-]`: the TGI was determined as 27.2 µM.
With `CC(=O)/C=C/c1cccc(N=S)c1`, the TGI is over 91.8 µM.
The compound `O=C1NC(=O)C2C(=O)NC(=O)C1C2(c1ccccc1)c1ccc(Cl)cc1` (stereo not drawn) yielded a TGI of over 100 µM.
`O=C(Nc1ccccc1[N+](=O)[O-])c1ccccc1` came in with a TGI of over 100 µM.
Still for that read-out and setting: next, `O=C1Oc2cc3c(c4cccc1c24)OCN(c1ccc(Cl)cc1)C3`: over 100 µM; `COc1cc2c(cc1OC)C1C=NC(C(=O)O)(C2)c2ccccc21` (stereo not drawn): over 100 µM.
Consider `O=C1CSC(N2CCN(c3cccc(Cl)c3)CC2)=N1`, for which the GI50 was 84.9 µM and the TGI is over 100 µM.
Compound `Cc1cc(C)nc(NS(=O)(=O)c2ccc(NC(=O)c3cccc4c(=O)c5ccccc5[nH]c34)cc2)n1` displayed a TGI of 50 µM.
For the compound `CCN1CCN(c2nc(NCCNc3ccnc4cc(Cl)ccc34)c3ccccc3n2)CC1`, the GI50 is 1.94 µM and the TGI came out at 5.85 µM.
As for `COc1ccccc1NC(=O)c1ccc(/C=C/C(=O)c2nccn2C)cc1`, the GI50 is 0.342 µM and the TGI is 1.09 µM.
On to `CCCCCCCCCCCCCCC1OC(=O)c2ccccc21` (stereo not drawn), for which the TGI was over 100 µM.
In turn, `CN(C)CCNC(=O)c1cccc2nc3c(Cl)cccc3nc12` returned a TGI of 32.2 µM.
`Cn1cc(C2=C(c3ccc(OC[C@@H](O)CO)cc3)C(=O)NC2=O)c2ccccc21`: the GI50 was 2.23 µM and the TGI is over 25 µM.
Regarding `O=C1c2ccccc2-c2c1c1cc3c(cc1c(=O)n2CCCCl)OCO3`, the GI50 was 0.58 µM and the TGI was over 100 µM.

Another experiment deals with SNB-78 CNS. The experiment is described as follows: growth of human tumour cells (NCI), 48 h.
In turn, `C1CN2N3CCCC23C1` (stereo not drawn) showed a TGI of over 100 µM.
The compound `Cc1cccc(C(C)(C)C)c1NC(=O)C(=O)Cc1nc2ccccc2s1` registered a TGI of over 100 µM.
Turning to `CC(=O)OCCc1cccnc1/C=N/O`, the TGI is over 100 µM.
`CN(C)c1ccc(/C=C2\C[N+](C)(C)C/C(=C\c3ccc(N(C)C)cc3)C2=O)cc1` had a TGI of over 95.8 µM.
Compound `O=C1CC[C@H]2CNC(=O)C[C@H]2C1` yielded a TGI of over 100 µM.
For `C#CC(C)(C)Oc1cc(O)c2c(=O)c3ccccc3n(C)c2c1`, the TGI was over 100 µM.
Turning to `CN1CCCNCCN(CCc2ccccn2)CCCN(C)CC1`, the TGI is over 100 µM.
Turning to `C[C@]12CCC(=O)C=C1CC[C@@H]1C2CC[C@]2(C)NC(=O)C(C#N)CC12` (stereo partly drawn), the TGI was over 100 µM.
`COC(=O)c1c(OC)cccc1C(=O)O` came in with a TGI of over 100 µM.
In the case of `O=[N+]([O-])c1ccc(NSc2ccccc2)cc1`, the TGI is over 100 µM.
`Cc1c(C(=O)/C=C/c2cccc3ccccc23)[n+](=O)c2ccccc2n1[O-]` gave a TGI of 47.8 µM.
Still for that read-out and setting: next, `CC(=O)/C=C/c1cccc(N=S)c1`: over 100 µM.
On the same count and under the same terms, next, `O=C1NC(=O)C2C(=O)NC(=O)C1C2(c1ccccc1)c1ccc(Cl)cc1` (stereo not drawn): over 100 µM; `O=C(Nc1ccccc1[N+](=O)[O-])c1ccccc1`: over 100 µM; `O=C1Oc2cc3c(c4cccc1c24)OCN(c1ccc(Cl)cc1)C3`: over 100 µM.
`COc1cc2c(cc1OC)C1C=NC(C(=O)O)(C2)c2ccccc21` (stereo not drawn) displayed a TGI of over 100 µM.
`Cc1cc(C)nc(NS(=O)(=O)c2ccc(NC(=O)c3cccc4c(=O)c5ccccc5[nH]c34)cc2)n1`: the TGI turned out to be 48.6 µM.
As to `CCCCCCCCCCCCCCC1OC(=O)c2ccccc21` (stereo not drawn), the TGI was over 100 µM.
For `CC(C)(C)C1=NC(S)NC(CCC(=O)Nc2ccccc2[N+](=O)[O-])=C1` (stereo not drawn), the TGI is over 100 µM.

In another experiment the test system is NCI-H23 lung. Kind of experiment: growth of human tumour cells (NCI), 48 h.
On to `C1CN2N3CCCC23C1` (stereo not drawn), for which the TGI is over 100 µM.
In the case of `Cc1cccc(C(C)(C)C)c1NC(=O)C(=O)Cc1nc2ccccc2s1`, the TGI is over 100 µM.
Same read-out and setting: to `CC(=O)OCCc1cccnc1/C=N/O` belongs over 100 µM; to `CN(C)c1ccc(/C=C2\C[N+](C)(C)C/C(=C\c3ccc(N(C)C)cc3)C2=O)cc1`, 54.4 µM; to `O=C1CC[C@H]2CNC(=O)C[C@H]2C1`, over 100 µM.
As to `C#CC(C)(C)Oc1cc(O)c2c(=O)c3ccccc3n(C)c2c1`, the TGI was over 100 µM.
The compound `CN1CCCNCCN(CCc2ccccn2)CCCN(C)CC1` registered a TGI of over 100 µM.
Same read-out and setting: next, `C[C@]12CCC(=O)C=C1CC[C@@H]1C2CC[C@]2(C)NC(=O)C(C#N)CC12` (stereo partly drawn): over 100 µM; `COC(=O)c1c(OC)cccc1C(=O)O`: over 100 µM.
Same read-out and setting: to `O=[N+]([O-])c1ccc(NSc2ccccc2)cc1` belongs over 100 µM.
Regarding `Cc1c(C(=O)/C=C/c2cccc3ccccc23)[n+](=O)c2ccccc2n1[O-]`, the TGI came out at 25.7 µM.
Still for that read-out and setting: to `CC(=O)/C=C/c1cccc(N=S)c1` belongs over 92.7 µM; to `O=C1NC(=O)C2C(=O)NC(=O)C1C2(c1ccccc1)c1ccc(Cl)cc1` (stereo not drawn), over 100 µM.
Compound `O=C(Nc1ccccc1[N+](=O)[O-])c1ccccc1` showed a TGI of over 100 µM.

Source of the values: PubChem BioAssay (NCI).
